This note sets out measurements from paper PMC6934184, “Selective DNA-PKcs inhibition extends the therapeutic index of localized radiotherapy and chemotherapy” (The Journal of Clinical Investigation, 2019).

The experiment concerns the target T1, BMPR2 (Homo sapiens, UniProt Q13873).
T1 construct: purchased Thermo Fisher Scientific (Life Technologies) SelectScreen
The experiment in a line: SelectScreen LanthaScreen. The format is binding. The conditions noted are these: 1 µM. An outline of the steps:
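Percent values come from Thermo SelectScreen profiling of NU5455, combining activity and binding assays. CSF1R was run in Z'LYTE format at Km app ATP, and CAMK1 in Adapta format with ATP listed at 10.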
(In general: In TR-FRET formats the signal depends on donor and acceptor labels being close together.)

T1 sequence (Q13873 27-1038): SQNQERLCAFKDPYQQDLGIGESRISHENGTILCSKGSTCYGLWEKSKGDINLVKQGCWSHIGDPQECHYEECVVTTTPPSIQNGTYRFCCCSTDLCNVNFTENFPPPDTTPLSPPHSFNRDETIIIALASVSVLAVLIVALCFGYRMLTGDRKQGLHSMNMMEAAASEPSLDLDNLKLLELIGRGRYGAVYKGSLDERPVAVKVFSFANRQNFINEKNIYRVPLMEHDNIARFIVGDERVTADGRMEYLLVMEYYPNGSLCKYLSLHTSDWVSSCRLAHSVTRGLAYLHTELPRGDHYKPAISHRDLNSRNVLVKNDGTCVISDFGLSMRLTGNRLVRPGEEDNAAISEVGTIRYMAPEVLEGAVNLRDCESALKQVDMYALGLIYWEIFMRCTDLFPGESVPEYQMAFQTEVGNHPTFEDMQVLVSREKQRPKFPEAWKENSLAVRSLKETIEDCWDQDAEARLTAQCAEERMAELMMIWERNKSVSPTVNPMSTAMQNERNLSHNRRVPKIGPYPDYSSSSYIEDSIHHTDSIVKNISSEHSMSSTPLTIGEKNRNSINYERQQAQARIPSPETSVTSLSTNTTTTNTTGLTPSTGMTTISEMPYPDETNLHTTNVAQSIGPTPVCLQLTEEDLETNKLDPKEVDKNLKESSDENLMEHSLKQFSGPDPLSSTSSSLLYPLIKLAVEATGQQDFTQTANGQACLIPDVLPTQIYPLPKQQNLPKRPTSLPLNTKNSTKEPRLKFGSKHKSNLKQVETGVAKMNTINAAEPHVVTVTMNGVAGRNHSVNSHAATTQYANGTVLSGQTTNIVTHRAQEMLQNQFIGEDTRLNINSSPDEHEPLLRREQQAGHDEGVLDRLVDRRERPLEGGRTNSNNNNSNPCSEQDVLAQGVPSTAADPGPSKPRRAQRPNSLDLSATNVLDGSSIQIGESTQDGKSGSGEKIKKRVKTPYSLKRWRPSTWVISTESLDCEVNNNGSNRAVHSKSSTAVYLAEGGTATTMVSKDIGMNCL

As to `CN(C(=O)CN1CCOCC1)c1ccc2sc3c(-c4cccc5c(=O)cc(N6CC7CCC(C6)O7)oc45)cccc3c2c1` [NU5455], the “% displacement” value is -2.5%.
